Literature values as cited in patent US20030018074A1, “Antiviral composition and treatment method” (priority 2001, published 2003).
Where two headings read alike, the source gives them in different places.

Experiments:
[1] = tested on: Vero cells
[2] = tested on: HSV-2; settings: for EC50: HSV-2, Vero cells, surfactant suspension, read-out: effective concentration required to inhibit plaque formation by 50% (EC50)
[3] = tested on: HSV-2 virus; settings: incubation of HSV-2 with the suspension for 2 hours
[4] = tested on: early viral protein synthesis
[5] = tested on: HSV-1 dorsal cutaneous infection; settings: 5% in a branch chain ester base; guinea pigs
[6] = tested on: viruses

CCCCCCCC/C=C/CCCCCCCCCCCCO [brassidyl alcohol, trans-13-docosen-1-ol]
cellular toxicity (in words) ([1]; compared with erucyl alcohol): significantly less than that of erucyl alcohol

CCCCCCCC/C=C\CCCCCCCCCCCC(N)=O [erucamide, cis-13-docosenoamide]
percent inhibition of plaque formation ([2]; 0.03 mM): 34%
percent inhibition of plaque formation ([2]; 0.59 mM): 42%
percent inhibition of plaque formation ([2]; 0.89 mM): 44%
percent inhibition of plaque formation ([2]; 1.2 mM): 58%
percent inhibition of plaque formation ([2]; 1.5 mM): 68%

CCCCCCCC/C=C\CCCCCCCCCCCCO [erucyl alcohol, cis-13-docosen-1-ol]
direct virucidal effect (in words) [3]: did not have a direct virucidal effect
cellular toxicity (in words) ([1]; 1 mM): no cellular toxicity was observed
toxicity to Vero cells (in words) ([1]; added to cultures at 2-15 mM): toxic to Vero cells
EC50 [2]: 0.15 mM
inhibition of HSV-2 plaque production ([2]; concentrations tolerable to the cells (≦1 mM)): ≤ 93%
EC50 lower than the concentration required for n-docosanol ([2]; ratio of EC50 n-docosanol to EC50 erucyl alcohol): 60 fold

CCCCCCCCCCCCCCCCCCCCCCO [n-docosanol]
EC50 [2]: 9 mM
concentrations where effective ([2]; Vero cultures): 2 to 15 mM
inhibition of early viral protein synthesis [4]: more than 80%

CCCCCCCCCCCCCCCCCCCCCCCCCCCCCCO [triacontanol, 1-triacontanol]
efficacy for the treatment of HSV-1 dorsal cutaneous infection (in words) [5]: a certain amount of efficacy

CCCCC/C=C\C/C=C\C/C=C\CCCCCO [γ-linolenyl alcohol]
inactivation of viruses, rank among C14 to C20 unsaturated alcohols (in words) [6]: most effective
